The source made the active and inactive calls. The rule behind the calls is not given here.
Tested on: rodent carcinogenicity bioassays, tumor incidence
Assay: CCRIS carcinogenicity studies
Details: Dose: 0, Dose: 0
Procedure, shortened: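 NCI-built, expert-reviewed records of carcinogenicity and related test outcomes (mutagenicity, tumor promotion/inhibition) compiled from published and report sources, historical span 1985-2011, not updated.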

For CN(C)NC(=O)CCC(=O)O, the carcinogen call (Species: MOUSE, Strain/Sex: B6C3F1/FEMALE, Route: ORAL, 5000, 10000 PPM IN DIET FOR 104 WK (STUDY DURATION: 105 WK), 5000, 10000 PPM IN DIET FOR 104 WK (STUDY DURATION: 105 WK)) was “inactive; negative”, the carcinogen call (Species: MOUSE, Strain/Sex: B6C3F1/MALE, Route: ORAL, 5000, 10000 PPM IN DIET FOR 104 WK (STUDY DURATION: 105 WK), 5000, 10000 PPM IN DIET FOR 104 WK (STUDY DURATION: 105 WK), Tumor Site: Type of Lesion: LIVER: HEPATOCELLULAR CARCINOMA) was “equivocal” and the carcinogen call (Species: Mouse, Strain/Sex: CD-1/Female (50/group), Route: Oral, 300, 3,000, 6,000, 10,000 ppm in diet for 2 yr, 300, 3,000, 6,000, 10,000 ppm in diet for 2 yr, Tumor Site: Type of Lesion: Uterus: at 10,000 ppm) was “equivocal”. For the same molecule, the carcinogen call (Species: Mouse, Strain/Sex: CD-1/Male (50/group), Route: Oral, 300, 3,000, 6,000, 10,000 ppm in diet for 2 yr, 300, 3,000, 6,000, 10,000 ppm in diet for 2 yr, Tumor Site: Type of Lesion: Vascular tumor: hemangioma and hemangiosarcoma in liver at 10,000 ppm) was “equivocal”, the carcinogen call (Species: Mouse, Strain/Sex: Swiss/Male and Female (100/group in controls; 50/group in treated group), Route: Oral, 2% in drinking water (3000 mg/kg/day), 0.003% UDMH (40 ppm impurity) for 2 yr, 2% in drinking water (3000 mg/kg/day), 0.003% UDMH (40 ppm impurity) for 2 yr, Tumor Site: Type of Lesion: Lung: adenomas and adenocarcinomas Vascular tumor: hemangioma and hemangiosarcoma predominantly in liver) was “equivocal, incidence of lung tumors may be from udmh” and the carcinogen call (Species: RAT, Strain/Sex: F344/FEMALE, Route: ORAL, 5000, 10000 PPM IN DIET FOR 104 WK (STUDY DURATION: 105 WK), 5000, 10000 PPM IN DIET FOR 104 WK (STUDY DURATION: 105 WK), Tumor Site: Type of Lesion: ENDOMETRIUM: ADENOCARCINOMA, UTERUS: LEIOMYOSARCOMA) was “active; positive”. The carcinogen call (Species: RAT, Strain/Sex: F344/MALE, Route: ORAL, 5000, 10000 PPM IN DIET FOR 104 WK (STUDY DURATION: 105 WK), 5000, 10000 PPM IN DIET FOR 104 WK (STUDY DURATION: 105 WK)) was “inactive; negative”, the carcinogen call (Species: Rat, Strain/Sex: Fischer 344/Female (50/group), Route: Oral, 1, 50, 100 ppm in diet for 2 yr, 1, 50, 100 ppm in diet for 2 yr, Tumor Site: Type of Lesion: Liver: increase at 50 and 100 ppm (incidence not reported by CADPR) Uterus: Adenocarcinoma (0, 0, 0, 2)) was “equivocal, ca dpr described results as providing marginal evidence of treatment” and the carcinogen call (Species: Rat, Strain/Sex: Fischer 344/Female (50/group), Route: Oral, 100, 500, 5,000, 10,000 ppm in diet for 2 yr, 100, 500, 5,000, 10,000 ppm in diet for 2 yr, Tumor Site: Type of Lesion: Uterus: Adenocarcinoma (0, 1, 2, 1, 1), Leiomyocarcinoma (0, 0, 0, 2, 1)) was “equivocal, ca dpr noted rarity of the tumors but that mtd not achieved”. The carcinogen call (Species: Rat, Strain/Sex: Fischer 344/Male (50/group), Route: Oral, 100, 500, 5,000, 10,000 ppm in diet for 2 yr, 100, 500, 5,000, 10,000 ppm in diet for 2 yr) was “inactive; negative”.

From PubChem BioAssay AID1259411 (Chemical Carcinogenesis Research Information System (CCRIS), 2018)
